Data taken from ChEMBL document CHEMBL3638392, “6-1H-imidazo-quinazoline and quinolines derivatives, new MAO inhibitors and imidazoline receptor ligands” (2014).

Target: T1, Amine oxidase [flavin-containing] A (Homo sapiens, UniProt P21397)
T1 sequence (P21397 whole entry): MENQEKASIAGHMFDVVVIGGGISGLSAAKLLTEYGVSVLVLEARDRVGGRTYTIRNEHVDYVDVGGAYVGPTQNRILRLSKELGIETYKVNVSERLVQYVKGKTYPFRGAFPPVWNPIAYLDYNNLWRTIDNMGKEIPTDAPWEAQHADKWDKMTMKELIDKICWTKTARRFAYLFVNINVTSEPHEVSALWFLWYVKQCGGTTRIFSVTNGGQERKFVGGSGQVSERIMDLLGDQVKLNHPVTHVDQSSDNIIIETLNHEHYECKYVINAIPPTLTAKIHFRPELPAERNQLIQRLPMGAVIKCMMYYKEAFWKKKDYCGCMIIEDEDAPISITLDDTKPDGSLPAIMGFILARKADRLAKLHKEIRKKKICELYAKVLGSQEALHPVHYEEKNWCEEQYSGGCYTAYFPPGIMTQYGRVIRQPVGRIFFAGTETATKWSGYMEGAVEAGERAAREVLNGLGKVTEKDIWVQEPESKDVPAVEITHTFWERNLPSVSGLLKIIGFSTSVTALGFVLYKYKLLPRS
Assay: Activity Assay: Inhibitory activity of compounds was evaluated by a homogeneous luminescent method, the MAO-Glo Assay (Promega), measuring the monoamine oxidase activity (MAOs) from recombinant source (microsomes from baculovirus infected insect cells, Sigma).

`CS(=O)(=O)c1ccc(-c2ccc3cc(-n4ccnc4)ccc3n2)cc1` was tested, and the IC50 was 450 nM.
